Experimental data reported in EP2998292A1, “Naphthyl sulfonamide derivatives as KEAP-1 modulators for the treatment of diabetes, obesity, dyslipidemia and related disorders” (SANOFI, priority 2014, dated 2016).

target: T1, human Keap1 kelch domain (amino acids Ala321-Thr609) (Homo sapiens, UniProt Q14145); test: Keap1-Nrf2 peptide binding assay (fluorescence polarisation); conditions: binding of Keap1 kelch domain (20 nM) to fluorescently labeled Nrf2 peptide Alexa633-AFFAQLQLDEETGEFL (50 nM); ambient temperature
T1 construct: human Keap1 kelch domain (amino acids Ala321-Thr609)
Method: Keap1-Nrf2 peptide binding assay
A fluorescence polarisation assay was used to measure binding of the human Keap1 kelch domain (amino acids Ala321-Thr609) to a fluorescently labeled peptide containing a Keap1 binding site of human Nrf2 (Alexa633-AFFAQLQLDEETGEFL; JPT Technologies, Berlin, Germany). Two microliters of test compound in reaction buffer (phosphate-buffered saline, 2 mM DL-dithiothreitol, 0.015 % (v/v) Brij-35) containing 6 % (v/v) DMSO were mixed with two microliters of the Keap1 kelch domain in reaction buffer in a black 384-well small volume microtiter plate and incubated at ambient temperature for 15 minutes. Thereafter, two microliters were added of the fluorescently labeled Nrf2 peptide in reaction buffer, and the mixture was incubated for a further 30 minutes at ambient temperature. Final concentrations of the Keap1 kelch domain and the fluorescently labeled Nrf2 peptide were 20 nM and 50 nM, respectively. Fluorescence polarization (FP) was measured at excitation and emission wavelengths of 635 nm and 660 nm, respectively. Positive controls for binding (two microliters of reaction buffer containing 6 % (v/v) DMSO instead of test compound in the same buffer) and negative controls (as positive controls, but without Keap1 kelch domain) were included on each microtiter plate. Data were expressed as percent-inhibition values: percent inhibition = 100⋅(1-(|FPcompound-FPnegative control|)/(|FPpositive control-FPnegative control|)) [formula]
IC50 values were determined by testing different compound concentrations and fitting the resulting percent-inhibition values to the following equation using XLFit4: percent inhibition = A + (B-A)/(1 + (((IC50)/([Compound])))^D) [formula]
Parameter A was set to zero, pre-fit values for parameters B and D were set to 100 and 1, respectively.

T1 sequence (Q14145 321-609): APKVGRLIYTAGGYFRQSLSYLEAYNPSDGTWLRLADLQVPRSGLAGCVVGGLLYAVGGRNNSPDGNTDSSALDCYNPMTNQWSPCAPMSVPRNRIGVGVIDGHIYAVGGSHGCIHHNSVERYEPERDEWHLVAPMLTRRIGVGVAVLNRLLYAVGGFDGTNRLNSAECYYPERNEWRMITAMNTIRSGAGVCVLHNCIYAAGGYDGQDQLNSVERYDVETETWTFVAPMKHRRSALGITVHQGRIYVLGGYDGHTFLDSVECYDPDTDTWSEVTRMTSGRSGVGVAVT

Molecule | IC50 [µM]
1-[4-[(5-chloro-1,3-dimethyl-pyrazol-4-yl)sulfonylamino]-2-naphthyl]piperidine-3-carboxylic acid; 2,2,2-trifluoroacetic acid [Example 11] | 26.7
CCCCCC(CC(=O)O)c1cc(NS(=O)(=O)c2c(C)c(C)cc(C)c2C)c2ccccc2c1 (stereo not shown) [Example 1, 3-[4-[(2,3,5,6-tetramethylphenyl)sulfonylamino]-2-naphthyl]octanoic acid] | 13
Cc1cc(C)c(C)c(S(=O)(=O)Nc2cc(C3CCCC3C(=O)O)cc3ccccc23)c1C (stereo not shown) [Example 3, 2-[4-[(2,3,5,6-tetramethylphenyl)sulfonylamino]-2-naphthyl]cyclopentaneca rboxylic acid] | 5.2
Cc1cc(C)c(C)c(S(=O)(=O)Nc2cc(C(CC(=O)O)c3ccccc3)cc3ccccc23)c1C (stereo not shown) [Example 4, 3-phenyl-3-[4-[(2,3,5,6-tetramethylphenyl)sulfonylamino]-2-naphthyl]propanoic acid] | 14.4
CCCCCC(Oc1cc(NS(=O)(=O)c2c(C)c(C)cc(C)c2C)c2ccccc2c1)C(=O)O (stereo not shown) [Example 5, 2-[[4-[(2,3,5,6-tetramethylphenyl)sulfonylamino]-2-naphthyl]oxy]heptanoic acid] | 3.3
Cc1cc(C)c(C)c(S(=O)(=O)Nc2cc(C3=CCC(C(=O)O)CC3)cc3ccccc23)c1C (stereo not shown) [Example 9, 4-[4-[(2,3,5,6-tetramethylphenyl)sulfonylamino]-2-naphthyl]cyclohex-3-ene-1-carboxylic acid] | 2.9
Cc1cc(C)c(C)c(S(=O)(=O)Nc2cc(CC(C(=O)O)C(F)(F)F)cc3ccccc23)c1C (stereo not shown) [Example 10, 3,3,3-trifluoro-2-[[4-[(2,3,5,6-tetramethylphenyl)sulfonylamino]-2-naphthyl]methyl]propanoi c acid] | 15.7
Cc1cc(C)c(C)c(S(=O)(=O)Nc2cc(N3CCCC(C(=O)O)C3)cc3ccccc23)c1C (stereo not shown) [Example 12, 1-[4-[(2,3,5,6-tetramethylphenyl)sulfonylamino]-2-naphthyl]piperidine-3-carboxylic acid; 2,2,2-trifluoroacetic acid] | 8.6
Cc1cc(C)c(C)c(S(=O)(=O)Nc2ccc(C(CC(=O)O)c3ccccc3)c3ccccc23)c1C (stereo not shown) [Example 13, 3-phenyl-3-[4-[(2,3,5,6-tetramethylphenyl)sulfonylamino]-1-naphthyl]propanoic acid] | 6.5
Cc1cc(C)c(C)c(S(=O)(=O)Nc2ccc(CC(C(=O)O)c3cccc(C(F)(F)F)c3)c3ccccc23)c1C (stereo not shown) [Example 14, 3-[4-[(2,3,5,6-tetra-methylphenyl)sulfonylamino]-1-naphthyl]-2-[3-(trifluoromethyl)phenyl]pr opanoic acid] | 4
